# In patent US20260345568A1, “INHIBITING MONOACYLGLYCEROL LIPASE (MAGL)” (PSY THERAPEUTICS, INC., priority 2023, published 2026):
# Target: T1, human MAGL (Homo sapiens, UniProt Q99685)
# T1 construct: recombinant MAGL enzyme (aa 2-303 RBC, internal preparation)
# T1 sequence (Q99685 2-303): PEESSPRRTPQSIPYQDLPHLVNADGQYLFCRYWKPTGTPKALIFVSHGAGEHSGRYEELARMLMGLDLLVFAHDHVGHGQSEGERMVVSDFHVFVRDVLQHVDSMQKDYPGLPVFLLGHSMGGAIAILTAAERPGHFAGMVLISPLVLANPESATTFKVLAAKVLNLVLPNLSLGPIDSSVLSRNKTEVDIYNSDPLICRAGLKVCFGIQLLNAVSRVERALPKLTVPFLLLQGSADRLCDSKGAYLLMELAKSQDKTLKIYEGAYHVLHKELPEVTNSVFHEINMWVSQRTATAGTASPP
# Assay: MAGL inhibition potency, 4-nitrophenyl acetate (4NPA) hydrolysis, absorbance 405 nm (Example A)
# Type: biochemical
# Settings: Method 2: Cayman Chemical MAGL enzyme, 10 nM; 4NPA substrate; read-out: Potency
# From the text: The potency of certain compounds for inhibiting MAGL were obtained using the following assays.
# The monoacylglycerol lipase inhibitor screening assay kit from Cayman Chemical was used to measure the MAGL potency for the compounds in Tables A-1, A-2, A-3.
# Cayman's Monoacylglycerol Lipase Inhibitor Screening Assay provides a method for screening human MAGL inhibitors. MAGL hydrolyzes 4-nitrophenylacetate resulting in a yellow product, 4-nitrophenol, with an absorbance of 405-412 nm.
# MAGL Inhibition was measured by the following assay. Monoacylglycerol Lipase (MAGL) inhibition was measured using recombinant MAGL enzyme (aa 2-303 RBC, internal preparation) and the substrate 4-Nitrophenyl acetate (4NPA) (Sigma-Aldrich, N8130). Hydrolysis of the substrate in the presence of the enzyme was measured by absorbance at 405 nm. 10 μL of assay buffer (10 mM Tris pH 7.5, 1 mM EDTA, 0.9% DMSO) was added to a black 384-well non-binding plate with clear bottom (Greiner, 781906) for each reaction. Compounds were dispensed using an acoustic liquid handler (Echo, Beckman) at 45 nL (0.1% DMSO). Test compounds and control for MAGL inhibitor JZL-184 (Caymen Chemical, 13158) were tested in 10-concentration IC50 mode with 3-fold serial dilution at a starting concentration of […]. DMSO control wells were included for reference. A 10.8 nM (1.8×) MAGL mix in assay buffer was prepared, with 25 μL added to each reaction well, for a final assay concentration of […]. No enzyme wells received 25 μL of buffer. Plate was incubated at room temperature for 30 minutes. 35 mM solution of 4NPA in methanol was prepared daily A 4.5×4NPA substrate solution was prepared in assay buffer and 10 μL was added to each reaction well, for a final assay concentration of 0.25 mM. Plate was spun for 1 minute at 1000 rpm before measuring absorbance using a CLARIOstar plate reader (BMG Labtech). A kinetic reading at 405 nm was done every minute for 30 minutes. Data was analyzed using the linear slope of the reaction progress curve and the average of the no-enzyme wells (background) was subtracted from the data. The background-subtracted slope data was converted to % activity using the average of wells with enzyme and DMSO vehicle. IC50s were calculated using GraphPad software (Sigmoidal dose response, variable slope equation).
# Table 8 provides potency measurements of MAGL inhibition measured using the Potency Assay of Example A above, with the following modifications described in Table C.
# The number after each letter for potency measurement value indicates the Method from Table C that was used to obtain that measurement value (e.g. “A(1)” indicates an IC50 measurement of <50 nM obtained from the Method 1 of Example A in Table C).
row,Compound,IC50
1,"Cc1cc(C2CC3(C2)CN([C@H]2CCOc4ccccc42)C3)n(-c2ccccc2C)n1 [Compound C4, reference compound]",> 10000 nM

# Same assay, conditions: Method 12: Reaction Biology MAGL enzyme, 15 nM; 4NPA substrate; read-out: MAGL Potency (Detection Method)
row,Compound,IC50
1,"O=C(c1cc(O)ccc1F)N1CC2(CC(n3cc(C(F)(F)F)c(-c4cccnc4F)n3)C2)C1 [Compound 22, (2-fluoro-5-hydroxyphenyl){6-[3-(2-fluoro-3-pyridyl)-4-(trifluoromethyl)-1-pyrazolyl]-2-aza-2-spiro[3.3]heptyl}methanone]",< 50 nM
2,"O=C(c1cc(O)ccc1F)N1CC2(CC(n3nc(-c4cccnc4)cc3C(F)(F)F)C2)C1 [Compound 4, (2-fluoro-5-hydroxyphenyl){6-[3-(3-pyridyl)-5-(trifluoromethyl)-1-pyrazolyl]-2-aza-2-spiro[3.3]heptyl}methanone]",< 50 nM
3,"O=C(c1ccc(F)cc1OC1CC1)N1CC2(CC(N3C=C(c4ccccc4F)CC3=O)C2)C1 [Compound 33, 1-{2-(2-cyclopropoxy-4-fluorobenzoyl)-2-aza-6-spiro[3.3]heptyl}-3-(o-fluorophenyl)-2-pyrrolin-5-one]",1000 to 5100 nM
4,"O=C1CCC(c2c(C(F)(F)F)cnn2C2CC3(C2)CN(C(=O)c2cc(O)ccc2F)C3)CN1 (centres unmarked) [Compound 41, 5-(1-{2-(2-fluoro-5-hydroxybenzoyl)-2-aza-6-spiro[3.3]heptyl}-4-(trifluoromethyl)-5-pyrazolyl)-2-piperidinone]",150 to 500 nM
5,O=C(c1cc(O)ccc1F)N1CC2(CC(n3ncc(C(F)(F)F)c3-c3cccnc3F)C2)C1 [Compound 21],150 to 500 nM
6,"O=C(c1cc(O)ccc1F)N1CC2(CC(n3nc(C(F)(F)F)cc3-c3ccc[nH]c3=O)C2)C1 [Compound 11, 3-(1-(2-(2-fluoro-5-hydroxybenzoyl)-2-azaspiro [3.3]heptan-6-yl)-3-(trifluoromethyl)-1H-pyrazol-5-yl) pyridin-2(1H)-one]",150 to 500 nM
7,"O=C(c1cc(O)ccc1F)N1CC2(CC(n3cc(C(F)(F)F)c(-c4ccc[nH]c4=O)n3)C2)C1 [Compound 30, 3-(1-{2-(2-fluoro-5-hydroxybenzoyl)-2-aza-6-spiro[3.3]heptyl}-4-(trifluoromethyl)-3-pyrazolyl)-2(1H)-pyridinone]",50 to 150 nM
8,"O=C(c1cc(O)ccc1F)N1CC2(CC(n3ncc(C(F)(F)F)c3-c3cccnc3)C2)C1 [Compound 1, (2-fluoro-5-hydroxyphenyl){6-[5-(3-pyridyl)-4-(trifluoromethyl)-1-pyrazolyl]-2-aza-2-spiro[3.3]heptyl}methanone]",150 to 500 nM
9,COc1ncccc1-c1nn(C2CC3(C2)CN(C(=O)c2cc(O)ccc2F)C3)cc1C(F)(F)F [Compound 20],150 to 500 nM
10,"O=C(c1cc(O)ccc1F)N1CC2(CC(n3nc(C(F)(F)F)cc3-c3cccnc3)C2)C1 [Compound 3, (2-fluoro-5-hydroxyphenyl){6-[5-(3-pyridyl)-3-(trifluoromethyl)-1-pyrazolyl]-2-aza-2-spiro[3.3]heptyl}methanone]",50 to 150 nM
11,O=C(c1cc(O)ccc1F)N1CC2(CC(n3nc(C(F)(F)F)cc3-c3cncc(F)c3)C2)C1 [Compound 13],150 to 500 nM
12,"O=C(c1cc(O)ccc1F)N1CC2(CC(n3nc(-c4cncc(F)c4)cc3C(F)(F)F)C2)C1 [Compound 14, (2-fluoro-5-hydroxyphenyl){6-[3-(5-fluoro-3-pyridyl)-5-(trifluoromethyl)-1-pyrazolyl]-2-aza-2-spiro[3.3]heptyl}methanone]",50 to 150 nM
13,"O=C(c1cc(O)ccc1F)N1CC2(CC(n3nc(-c4ccncc4)cc3C(F)(F)F)C2)C1 [Compound 8, (2-fluoro-5-hydroxyphenyl){6-[3-(4-pyridyl)-5-(trifluoromethyl)-1-pyrazolyl]-2-aza-2-spiro[3.3]heptyl}methanone]",< 50 nM
14,"O=C(c1cc(O)ccc1F)N1CC2(CC(n3nc(C(F)(F)F)cc3-c3ccc(=O)[nH]c3)C2)C1 [Compound 9, 5-(1-(2-(2-fluoro-5-hydroxybenzoyl)-2-azaspiro [3.3]heptan-6-yl)-3-(trifluoromethyl)-1H-pyrazol-5-yl) pyridin-2(1H)-one]",150 to 500 nM
15,O=C(c1cc(O)ccc1F)N1CC2(CC(n3cc(C(F)(F)F)c(-c4ccc(=O)[nH]c4)n3)C2)C1 [Compound 32],50 to 150 nM
16,"COc1ncccc1-c1c(C(F)(F)F)cnn1C1CC2(C1)CN(C(=O)c1cc(O)ccc1F)C2 [Compound 19, (2-fluoro-5-hydroxyphenyl){6-[5-(2-methoxy-3-pyridyl)-4-(trifluoromethyl)-1-pyrazolyl]-2-aza-2-spiro[3.3]heptyl}methanone]",< 50 nM
17,"COc1ccc(-c2cc(C(F)(F)F)nn2C2CC3(C2)CN(C(=O)c2cc(O)ccc2F)C3)cn1 [Compound 18, (2-fluoro-5-hydroxyphenyl) (6-(5-(6-methoxypyridin-3-yl)-3-(trifluoromethyl)-1H-pyrazol-1-yl)-2-azaspiro [3.3]heptan-2-yl) methanone]",150 to 500 nM
18,COc1ncccc1-c1cc(C(F)(F)F)nn1C1CC2(C1)CN(C(=O)c1cc(O)ccc1F)C2 [Compound 16],50 to 150 nM
19,"O=C(c1cc(O)ccc1F)N1CC2(CC(n3nc(-c4ccccn4)cc3C(F)(F)F)C2)C1 [Compound 6, (2-fluoro-5-hydroxyphenyl){6-[3-(2-pyridyl)-5-(trifluoromethyl)-1-pyrazolyl]-2-aza-2-spiro[3.3]heptyl}methanone]",150 to 500 nM
20,COc1ccc(-c2c(C(F)(F)F)cnn2C2CC3(C2)CN(C(=O)c2cc(O)ccc2F)C3)cn1 [Compound 27],50 to 150 nM
21,"O=C(c1cc(O)ccc1F)N1CC2(CC(n3ncc(C(F)(F)F)c3-c3ccc[nH]c3=O)C2)C1 [Compound 29, 3-(1-{2-(2-fluoro-5-hydroxybenzoyl)-2-aza-6-spiro[3.3]heptyl}-4-(trifluoromethyl)-5-pyrazolyl)-2(1H)-pyridinone]",1000 to 5100 nM
22,"O=C(c1cc(O)ccc1F)N1CC2(CC(n3ncc(C(F)(F)F)c3-c3ccc(=O)[nH]c3)C2)C1 [Compound 31, 5-(1-{2-(2-fluoro-5-hydroxybenzoyl)-2-aza-6-spiro[3.3]heptyl}-4-(trifluoromethyl)-5-pyrazolyl)-2(1H)-pyridinone]",1000 to 5100 nM
23,"O=C(c1cc(O)ccc1F)N1CC2(CC(n3cc(C(F)(F)F)c(-c4cccnc4)n3)C2)C1 [Compound 2, (2-fluoro-5-hydroxyphenyl){6-[3-(3-pyridyl)-4-(trifluoromethyl)-1-pyrazolyl]-2-aza-2-spiro[3.3]heptyl}methanone]",< 50 nM
24,"O=C(c1cc(O)ccc1F)N1CC2(CC(n3nc(C(F)(F)F)cc3-c3ccncc3)C2)C1 [Compound 7, (2-fluoro-5-hydroxyphenyl){6-[5-(4-pyridyl)-3-(trifluoromethyl)-1-pyrazolyl]-2-aza-2-spiro[3.3]heptyl}methanone]",150 to 500 nM
25,"COc1ccc(-c2nn(C3CC4(C3)CN(C(=O)c3cc(O)ccc3F)C4)cc2C(F)(F)F)cn1 [Compound 28, (2-fluoro-5-hydroxyphenyl){6-[3-(6-methoxy-3-pyridyl)-4-(trifluoromethyl)-1-pyrazolyl]-2-aza-2-spiro[3.3]heptyl}methanone]",< 50 nM
